Source: US11096967B2, “Pharmaceutical composition for preventing or treating regulatory T cell-mediated diseases” (SCM LIFESCIENCE CO., LTD., priority 2016, dated 2021)

Key:
Type in all cases: cell-based, human
CD4^+ T cells = assay: Effect of PI3K-Akt inhibitors on rhICOSL- or hcMSC-induced Treg induction; details: 2 days; LY294002 5 μM, GSK690693 1 μM
Method: Akt inhibitor […] (Calbiochem, San Diego, Calif., USA) was used at a concentration of 1 μM and LY294002 (Cell Signaling Technology, Danvers, Mass., USA) was used at concentration of 5 to 10 μM. […] Total Akt was determined. […] The results are illustrated in FIG. 14.

[1] = system: PI3K-Akt signaling pathway; assay: Akt phosphorylation in CD4^+ T cells (Western blotting); details: pre-treatment 30 min; LY294002 5 μM, GSK690693 1 μM
Method: Five independent experiments were carried out. […] After 2 days, hcMSCs were washed three times with cold phosphate-buffered saline (PBS) containing 0.05 mM ethylenediamine tetraacetic acid (EDTA) to detach lymphocytes from hcMSCs. Then, hcMSCs were trypsinized and washed twice with cold PBS-EDTA solution and stained with phycoerythrin (PE)-conjugated ICOSL antibody (BioLegend) to analyze ICOSL expression.
More particularly, CD4^+ T cells were pre-treated with LY294002 (5 μM) and GSK690693 (1 μM) for 30 min. […] Total Akt was determined.

ICOSL = ICOSL induction in hcMSC by priming factors (qRT-PCR, RT-PCR); details: for levels of ICOSL mRNA in hcMSCs: IL-1β 10 ng/mL, TNF-α 10 ng/mL, LPS 2 μg/mL, qRT-PCR
Source text: It has been known that the immunosuppressive activity of MSCs can be influenced by various priming or appropriate stimulations. It was confirmed that ICOSL expression in hcMSCs correlated with Treg induction. Thus, it was expected that ICOSL expression was enhanced to increase Treg and to strengthen the immunosuppressive function of hcMSCs. To confirm this expectation, an experiment was first carried out to confirm pro-inflammatory cytokine that can induce ICOSL expression. First, to find appropriate priming factors, hcMSCs were treated with IL-1β (10 ng/mL), TNF-α (10 ng/mL) and LPS (2 μg/mL) for 24 hours. Then, ICOSL expression was determined after 1 hour and 3 hours though qRT-PCR. Further, in order to confirm whether the expression of IL-1R in hcMSC was changed by […] treatment, the expression of IL-1R in hcMSC was confirmed after treatment with IL-1β for 24 hours. The results are illustrated in FIG. 16.

Row | Compound | rhICOSL or hcMSC-induced Tregs (CD4^+ T cells) | rhICOSL-induced Akt phosphorylation [1] | levels of ICOSL mRNA in hcMSCs (ICOSL) | levels of ICOSL mRNA in hcMSCs (ICOSL; listed as IL-10) | expression of IL-1R mRNA in hcMSC (ICOSL; IL-1β 10 ng/ml, 24 hours)
1 | CCn1c(-c2nonc2N)nc2c(C#CC(C)(C)O)ncc(OC[C@H]3CCCNC3)c21 [GSK690693] | decreased | marked decrease in Akt phosphorylation | – | – | –
2 | IL-1β: pro-inflammatory cytokine used as priming factor for hcMSCs | – | – | highest effect | increased | did not change the expression of IL-1R mRNA
3 | TNF-α | – | – | increased | – | –
